Test results from patent US20050004092A1, “Penem derivatives and antimicrobial agent containing the same” (DAIICHI SUNTORY PHARMA CO., LTD., priority 1995, published 2005).
Converted amounts (≈) assume the structure as drawn.

Experiments:
Assay in all cases: antibacterial activity (MIC), standard in vitro dilution test
[1] = test system: MRSA 31 high-resist. (IPM resist.); assay type: cell-based, Staphylococcus aureus; conditions: test bacterium strain 10^5 cfu/ml; for MIC: Staphylococcus aureus, MRSA, read-out: MIC, MRSA 31 high-resist. (IPM resist.)
Source text: (§1) With respect to certain compounds (I) of the present invention, their general antibacterial activities and their antibacterial activities (MIC) against various methicillin-resistant strains of Staphylococcus aureus (methicillin-resistant Staphylococcus aureus: MRSA) were investigated. The results will be shown next.
(§2) Of the investigations, the general antibacterial activities were investigated by a standard in vitro dilution test.
(§3) As test bacteria, Staphylococcus aureus 209P JC-1, Escherichia coli NIHJ JC-2 and MRSAs were used.

[2] = test system: MRSA 33 high-resist. (IPM resist.); assay type: cell-based, Staphylococcus aureus; conditions: test bacterium strain 10^5 cfu/ml; for MIC: Staphylococcus aureus, MRSA, read-out: MIC, MRSA 33 high-resist. (IPM resist.)
Source text: as §1, §2, §3

[3] = test system: Staphylococcus aureus 209P JC-1 strain; assay type: cell-based; conditions: test bacterium strain 10^5 cfu/ml; for MIC: Staphylococcus aureus, 209P, read-out: MIC, Staphylococcus aureus 209P JC-1 strain
Source text: as §1, §2, §3

[4] = test system: Escherichia coli NIHJ JC-2 strain; assay type: cell-based; conditions: for MIC: Escherichia coli, NIHJJC2, test bacterium strain 10^5 cfu/ml, read-out: MIC, Escherichia coli NIHJ JC-2 strain; for MIC, Escherichia coli NIHJ JC-2 strain: test bacterium strain 10^5 cfu/ml
Source text: as §1, §2, §3

SMILES | MIC [1] | MIC [2] | MIC [3] | MIC [4] | MIC, MRSA 31 high-resist. (IPM resist.) [1] | MIC, MRSA 33 high-resist. (IPM resist.) [2] | MIC, Staphylococcus aureus 209P JC-1 strain [3] | MIC, Escherichia coli NIHJ JC-2 strain [4]
CC[C@H](O)[C@@H]1C(=O)N2C(C(=O)O)=C(SC3CCN(CC(=O)c4ccccc4C)C3)S[C@H]12 (stereo partly shown) [Ex. 226] | 6.25 µg/mL (≈ 13.5 µM) | 6.25 µg/mL (≈ 13.5 µM) | 0.2 µg/mL (≈ 0.432 µM) | 0.39 µg/mL (≈ 0.843 µM) | – | – | – | –
C=CCN1CCC(SC2=C(C(=O)O)N3C(=O)[C@@H]([C@@H](O)CC)[C@H]3S2)C1 (stereo partly drawn) [Ex. 17, (5R,6R)-2-(1-allyl-3-pyrrolidine)-thio-6-((S)-1-hydroxypropyl)penem-3-carboxylic acid] | – | – | – | – | 3.13 µg/mL (≈ 8.45 µM) | 3.13 µg/mL (≈ 8.45 µM) | 0.10 µg/mL (≈ 0.27 µM) | 0.39 µg/mL (≈ 1.05 µM)
CC[C@H](O)[C@@H]1C(=O)N2C(C(=O)O)=C(Sc3ccccc3)S[C@H]12 [Ex. 151, (5R,6R)-6-((S)-1-hydroxypropyl)-2-phenylthiopenem-3-carboxylic acid] | 6.25 µg/mL (≈ 18.5 µM) | 6.25 µg/mL (≈ 18.5 µM) | 0.1 µg/mL (≈ 0.296 µM) | 25 µg/mL (≈ 74.1 µM) | – | – | – | –
CC[C@H](O)[C@@H]1C(=O)N2C(C(=O)O)=C(S[C@H]3CCN(C(C)=N)C3)S[C@H]12 [Ex. 103, (5R,6R)-2-((S)-1-(1-iminoethyl)-pyrrolidin-3-yl)thio-6-((S)-1-hydroxypropyl)-penem-3-carboxylic acid] | 3.13 µg/mL (≈ 8.43 µM) | 3.13 µg/mL (≈ 8.43 µM) | 0.1 µg/mL (≈ 0.269 µM) | 0.39 µg/mL (≈ 1.05 µM) | – | – | – | –
CC[C@H](O)[C@@H]1C(=O)N2C(C(=O)O)=C(S[C@H]3CCN(CC(=O)c4ccc(F)cc4)C3)S[C@H]12 [Ex. 112, (5R,6R)-2-((S)-1-(2-p-fluorophenyl-2-oxoethyl)pyrrolidin-3-yl)thio-6-((S)-1-hydroxypropyl)penem-3-carboxylic acid] | 6.25 µg/mL (≈ 13.4 µM) | 6.25 µg/mL (≈ 13.4 µM) | 0.1 µg/mL (≈ 0.214 µM) | 0.78 µg/mL (≈ 1.67 µM) | – | – | – | –
CC[C@H](O)[C@@H]1C(=O)N2C(C(=O)O)=C(Sc3nc(-c4ccccc4)cs3)S[C@H]12 [Ex. 152, (5R,6R)-6-((S)-1-hydroxypropyl)-2-(4-phenylthiazol-2-yl)thiopenem-3-carboxylic acid] | 3.13 µg/mL (≈ 7.44 µM) | 3.13 µg/mL (≈ 7.44 µM) | 0.05 µg/mL (≈ 0.119 µM) | 50 µg/mL (≈ 119 µM) | – | – | – | –
CC[C@H](O)[C@@H]1C(=O)N2C(C(=O)O)=C(SC3CCc4cccnc43)S[C@H]12 (stereo partly shown) [Ex. 232] | – | – | – | – | 3.13 µg/mL (≈ 8.27 µM) | 3.13 µg/mL (≈ 8.27 µM) | 0.05 µg/mL (≈ 0.132 µM) | 12.5 µg/mL (≈ 33 µM)
CC[C@H](O)[C@@H]1C(=O)N2C(C(=O)O)=C(SC3CCCN(Cc4ccccc4)C3)S[C@H]12 (stereo partly shown) [Ex. 125*^4] | 6.25 µg/mL (≈ 14.4 µM) | 6.25 µg/mL (≈ 14.4 µM) | 0.2 µg/mL (≈ 0.46 µM) | 12.5 µg/mL (≈ 28.8 µM) | – | – | – | –
CC[C@H](O)[C@@H]1C(=O)N2C(C(=O)O)=C(SCCN)S[C@H]12 [Ex. 140, (5R,6R)-2-(2-aminoethyl)thio-6-((S)-1-hydroxypropyl)penem-3-carboxylic acid] | 6.25 µg/mL (≈ 20.5 µM) | 6.25 µg/mL (≈ 20.5 µM) | 0.1 µg/mL (≈ 0.329 µM) | 0.73 µg/mL (≈ 2.4 µM) | – | – | – | –
CC[C@H](O)[C@@H]1C(=O)N2C(C(=O)O)=C(S[C@H]3CCN(C(=N)Nc4ccccc4)C3)S[C@H]12 [Ex. 243] | 6.25 µg/mL (≈ 13.9 µM) | 6.25 µg/mL (≈ 13.9 µM) | 0.2 µg/mL (≈ 0.446 µM) | 1.56 µg/mL (≈ 3.48 µM) | – | – | – | –
CC[C@H](O)[C@@H]1C(=O)N2C(C(=O)O)=C(S[C@H]3CCN(CC(=O)c4ccc(C)cc4)C3)S[C@H]12 [Ex. 113, (5R,6R)-6-((S)-1-hydroxypropyl)-2-((S)-1-(2-oxo-2-p-tolylethyl)pyrrolidin-3-yl)-thiopenem-3-carboxylic acid] | 6.25 µg/mL (≈ 13.5 µM) | 6.25 µg/mL (≈ 13.5 µM) | 0.1 µg/mL (≈ 0.216 µM) | 0.39 µg/mL (≈ 0.843 µM) | – | – | – | –
CC[C@H](O)[C@@H]1C(=O)N2C(C(=O)O)=C(SCCNC(C)=N)S[C@H]12 [Ex. 131, (5R,6R)-2-(2-(1-iminoethylamino)-ethyl)thio-6-((S)-1-hydroxypropyl)penem-3-carboxylic acid] | 6.25 µg/mL (≈ 18.1 µM) | 6.25 µg/mL (≈ 18.1 µM) | 0.1 µg/mL (≈ 0.289 µM) | 0.78 µg/mL (≈ 2.26 µM) | – | – | – | –
CC[C@H](O)[C@@H]1C(=O)N2C(C(=O)O)=C(S[C@H]3CCN(c4ccc(NC(C)=N)cc4)C3)S[C@H]12 [Ex. 257] | 3.13 µg/mL (≈ 6.77 µM) | 1.56 µg/mL (≈ 3.37 µM) | 0.05 µg/mL (≈ 0.108 µM) | 12.5 µg/mL (≈ 27 µM) | – | – | – | –
CC[C@H](O)[C@@H]1C(=O)N2C(C(=O)O)=C(S[C@H]3CCN(c4ncccn4)C3)S[C@H]12 [Ex. 209] | 6.25 µg/mL (≈ 15.3 µM) | 6.25 µg/mL (≈ 15.3 µM) | 0.39 µg/mL (≈ 0.955 µM) | 25 µg/mL (≈ 61.2 µM) | – | – | – | –
CCC(=N)N1CC[C@H](SC2=C(C(=O)O)N3C(=O)[C@@H]([C@@H](O)CC)[C@H]3S2)C1 [Ex. 250] | 6.25 µg/mL (≈ 16.2 µM) | 6.25 µg/mL (≈ 16.2 µM) | 0.2 µg/mL (≈ 0.519 µM) | 1.56 µg/mL (≈ 4.05 µM) | – | – | – | –
CC[C@H](O)[C@@H]1C(=O)N2C(C(=O)O)=C(S[C@H]3CCN(CC4CC4)C3)S[C@H]12 [Ex. 230] | 6.25 µg/mL (≈ 16.3 µM) | 6.25 µg/mL (≈ 16.3 µM) | 0.2 µg/mL (≈ 0.52 µM) | 0.78 µg/mL (≈ 2.03 µM) | – | – | – | –
CC[C@H](O)[C@@H]1C(=O)N2C(C(=O)O)=C(SC3CCN(C/C=C/c4ccccc4)C3)S[C@H]12 (stereo partly shown) [Ex. 228] | 3.13 µg/mL (≈ 7.01 µM) | 3.13 µg/mL (≈ 7.01 µM) | 0.05 µg/mL (≈ 0.112 µM) | 12.5 µg/mL (≈ 28 µM) | – | – | – | –
CC[C@H](O)[C@@H]1C(=O)N2C(C(=O)O)=C(S[C@H]3CCN(CCC(=O)c4ccccc4)C3)S[C@H]12 [Ex. 116, (5R,6R)-2-((S)-1-(2-benzoylethyl)-pyrrolidin-3-yl)thio-6-((S).-1-hydroxypropyl)-penem-3-carboxylic acid] | 3.13 µg/mL (≈ 6.77 µM) | 3.13 µg/mL (≈ 6.77 µM) | 0.05 µg/mL (≈ 0.108 µM) | 0.2 µg/mL (≈ 0.432 µM) | – | – | – | –
CC[C@H](O)[C@@H]1C(=O)N2C(C(=O)O)=C(SC3CN(C(C)=N)C3)S[C@H]12 [Ex. 255] | 3.13 µg/mL (≈ 8.76 µM) | 3.13 µg/mL (≈ 8.76 µM) | 0.1 µg/mL (≈ 0.28 µM) | 0.78 µg/mL (≈ 2.18 µM) | – | – | – | –
CC[C@H](O)[C@@H]1C(=O)N2C(C(=O)O)=C(S[C@H]3CCN(CCCC(=O)c4ccccc4)C3)S[C@H]12 [Ex. 215] | 6.25 µg/mL (≈ 13.1 µM) | 6.25 µg/mL (≈ 13.1 µM) | 0.1 µg/mL (≈ 0.21 µM) | 3.13 µg/mL (≈ 6.57 µM) | – | – | – | –
CC[C@H](O)[C@@H]1C(=O)N2C(C(=O)O)=C(SCCN3CCCC3)S[C@H]12 [Ex. 143, (5R,6R)-6-((S)-1-hydroxypropyl)-2-(2-(pyrrolidin-1-yl)ethyl)thiopenem-3-carboxylic acid] | 6.25 µg/mL (≈ 17.4 µM) | 6.25 µg/mL (≈ 17.4 µM) | 0.39 µg/mL (≈ 1.09 µM) | 3.13 µg/mL (≈ 8.73 µM) | – | – | – | –
CC[C@H](O)[C@@H]1C(=O)N2C(C(=O)O)=C(S[C@H]3CCN(C[C@@H](O)c4ccccc4)C3)S[C@H]12 [Ex. 107, (5R,6R)-6-((S)-1-hydroxypropyl)-2-(1-((S)-2-hydroxy-2-phenylethyl)pyrrolidin-3-yl)thiopenem-3-carboxylic acid] | 6.25 µg/mL (≈ 13.9 µM) | 6.25 µg/mL (≈ 13.9 µM) | 0.1 µg/mL (≈ 0.222 µM) | 1.56 µg/mL (≈ 3.46 µM) | – | – | – | –
CC[C@H](O)[C@@H]1C(=O)N2C(C(=O)O)=C(SC3CN(C=N)C3)S[C@H]12 [Ex. 254] | 6.25 µg/mL (≈ 18.2 µM) | 6.25 µg/mL (≈ 18.2 µM) | 0.1 µg/mL (≈ 0.291 µM) | 0.78 µg/mL (≈ 2.27 µM) | – | – | – | –
CC[C@H](O)[C@@H]1C(=O)N2C(C(=O)O)=C(SCCC(=O)Nc3ccccc3)S[C@H]12 [Ex. 134, (5R,6R)-6-((S)-1-hydroxypropyl)-2-(2-phenylaminocarbonylethyl)thiopenem-3-carboxylic acid] | 6.25 µg/mL (≈ 15.3 µM) | 6.25 µg/mL (≈ 15.3 µM) | 0.39 µg/mL (≈ 0.955 µM) | 12.5 µg/mL (≈ 30.6 µM) | – | – | – | –
CC[C@H](O)[C@@H]1C(=O)N2C(C(=O)O)=C(SCc3ccc(C#N)cc3)S[C@H]12 [Ex. 239] | 0.78 µg/mL (≈ 2.07 µM) | 1.56 µg/mL (≈ 4.14 µM) | 0.1 µg/mL (≈ 0.266 µM) | 12.5 µg/mL (≈ 33.2 µM) | – | – | – | –
